Measurements from patent US12551495B2, “Phytoecdysones and derivatives thereof for use in treating disordered respiratory function on viral infection” (priority 2020, dated 2026).

Key:
Mas receptor = molecular target: T1, Mas receptor (Homo sapiens, UniProt P04201); details: Dilda et al. 2019; cited from earlier work
T1 sequence (P04201 1-325): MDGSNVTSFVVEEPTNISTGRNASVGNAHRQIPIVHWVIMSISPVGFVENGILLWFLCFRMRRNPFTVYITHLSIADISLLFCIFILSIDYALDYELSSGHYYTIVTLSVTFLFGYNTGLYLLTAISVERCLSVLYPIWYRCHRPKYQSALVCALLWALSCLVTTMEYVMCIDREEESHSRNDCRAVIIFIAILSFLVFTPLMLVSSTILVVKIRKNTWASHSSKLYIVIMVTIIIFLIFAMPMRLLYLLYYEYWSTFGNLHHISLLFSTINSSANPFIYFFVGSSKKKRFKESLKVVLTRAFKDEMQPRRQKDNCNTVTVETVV

[1] = test system: mouse model of acute lung injury (ALI); details: Xia et al. 2016, Song et al. 2019; cited from earlier work
[2] = test system: hypertensive type SH (spontaneously hypertensive) rats; test: Mean arterial pressure by telemetry in spontaneously hypertensive rats, single oral administration; type: in vivo, rat; details: Enalapril 50 mg/kg
Experimental: The effects of BIO101 alone were evaluated after a single oral administration. Six SH rats were used in crossover treatments with an elimination period of a minimum of 72 hours between treatments. Prior to the treatment, the animals were equipped with telemetry instruments for measuring arterial pressure. For the experiment described in FIG. 2A the animals received the following treatments: vehicle, either BIO101 at 5 mg/kg, or BIO101 at 50 mg/kg, or Enalapril at 50 mg/kg.
The inventors tested the phytoecdysones and more particularly BIO101 on the mean arterial pressure by telemetry, in hypertensive animals after oral administration at the doses of 5 and 50 mg/kg. The study relates to hypertensive type SH (spontaneously hypertensive) rats.
BIO101 therefore has no anti-hypertensive effect.

## CC(C)(O)CC[C@@H](O)[C@](C)(O)[C@H]1CC[C@@]2(O)C3=CC(=O)[C@@H]4C[C@@H](O)[C@@H](O)C[C@]4(C)[C@H]3CC[C@]12C [20-hydroxyecdysone]
Mas receptor
  activity on Mas receptor: activates
[1]
  anti-inflammatory cytokines (IL-4, IL-10): increased
  lung injuries (histological examination): reduction in lung injuries
  plasmatic inflammatory cytokines (TNF-α, IL-2, IL-6, IL-8): reduced

## CCOC(=O)[C@H](CCc1ccccc1)N[C@@H](C)C(=O)N1CCC[C@H]1C(=O)O [Enalapril]
[2]
  anti-hypertensive activity (mean arterial pressure): has an anti-hypertensive activity
